{
  "source": "paper PMC5053573",
  "about": "“Structure-Based Design of Tetrahydroisoquinoline-7-carboxamides as Selective Discoidin Domain Receptor 1 (DDR1) Inhibitors” (Journal of Medicinal Chemistry, 2016)",
  "experiment_in_all_cases": "biochemical",
  "settings_in_all_cases": "read-out: %Ctrl @ 1000nM",
  "key": {"[1]": {"target": "EGFR(L747-S752del, P753S) (Homo sapiens, UniProt P00533, DEL747-752/P753S)"}, "KIT(D816V)": {"target": "KIT(D816V) (Homo sapiens, UniProt P10721, D816V)", "sequence (P10721 whole entry D816V)": "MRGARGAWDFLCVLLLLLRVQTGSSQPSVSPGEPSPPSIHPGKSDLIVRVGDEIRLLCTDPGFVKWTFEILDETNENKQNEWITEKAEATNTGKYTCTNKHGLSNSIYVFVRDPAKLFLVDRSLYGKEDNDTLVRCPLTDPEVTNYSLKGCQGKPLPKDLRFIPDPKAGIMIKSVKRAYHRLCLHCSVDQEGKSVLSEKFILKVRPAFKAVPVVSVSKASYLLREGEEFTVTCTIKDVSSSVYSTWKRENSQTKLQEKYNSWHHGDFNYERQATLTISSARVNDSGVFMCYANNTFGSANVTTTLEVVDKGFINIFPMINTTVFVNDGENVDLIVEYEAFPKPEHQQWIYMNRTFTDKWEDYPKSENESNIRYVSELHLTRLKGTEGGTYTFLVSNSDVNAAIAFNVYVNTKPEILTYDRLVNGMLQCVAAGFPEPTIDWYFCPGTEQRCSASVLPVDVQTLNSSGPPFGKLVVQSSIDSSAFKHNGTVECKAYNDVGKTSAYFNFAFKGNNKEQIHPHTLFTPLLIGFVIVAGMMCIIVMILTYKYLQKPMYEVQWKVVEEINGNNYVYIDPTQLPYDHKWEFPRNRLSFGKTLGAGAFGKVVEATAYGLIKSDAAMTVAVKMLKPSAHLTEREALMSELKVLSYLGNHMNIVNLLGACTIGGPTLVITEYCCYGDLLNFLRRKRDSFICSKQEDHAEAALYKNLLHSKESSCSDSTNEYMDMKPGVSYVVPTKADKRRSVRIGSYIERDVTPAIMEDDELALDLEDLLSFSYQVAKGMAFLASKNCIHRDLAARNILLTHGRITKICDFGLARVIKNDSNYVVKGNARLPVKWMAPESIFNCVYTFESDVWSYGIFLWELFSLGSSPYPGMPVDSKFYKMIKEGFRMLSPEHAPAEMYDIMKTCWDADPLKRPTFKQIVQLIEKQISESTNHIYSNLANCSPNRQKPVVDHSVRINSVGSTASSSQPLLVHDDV"}, "CSNK1A1L": {"target": "CSNK1A1L (Homo sapiens, UniProt Q8N752)", "sequence (Q8N752 whole entry)": "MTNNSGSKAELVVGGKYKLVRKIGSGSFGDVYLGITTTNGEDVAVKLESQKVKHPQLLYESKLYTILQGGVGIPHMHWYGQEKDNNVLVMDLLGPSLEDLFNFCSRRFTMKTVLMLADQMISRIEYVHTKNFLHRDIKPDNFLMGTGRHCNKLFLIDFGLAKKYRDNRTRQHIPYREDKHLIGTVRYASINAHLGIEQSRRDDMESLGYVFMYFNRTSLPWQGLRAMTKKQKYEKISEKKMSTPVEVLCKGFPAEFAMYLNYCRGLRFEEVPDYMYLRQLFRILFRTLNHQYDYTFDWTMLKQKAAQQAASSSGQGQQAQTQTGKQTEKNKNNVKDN"}, "HASPIN": {"target": "HASPIN (Homo sapiens, UniProt Q8TF76)"}, "PAK2": {"target": "PAK2 (Homo sapiens, UniProt Q13177)"}, "EPHA6": {"target": "EPHA6 (Homo sapiens, UniProt Q9UF33)"}, "PIP5K2C": {"target": "T1, PIP5K2C (Homo sapiens, UniProt Q8TBX8)", "T1 construct": "gene PIP4K2C"}, "AMPK-alpha2": {"target": "T2, AMPK-alpha2 (Homo sapiens, UniProt P54646)", "T2 construct": "gene PRKAA2"}, "MERTK": {"target": "MERTK (Homo sapiens, UniProt Q12866)", "sequence (Q12866 whole entry)": "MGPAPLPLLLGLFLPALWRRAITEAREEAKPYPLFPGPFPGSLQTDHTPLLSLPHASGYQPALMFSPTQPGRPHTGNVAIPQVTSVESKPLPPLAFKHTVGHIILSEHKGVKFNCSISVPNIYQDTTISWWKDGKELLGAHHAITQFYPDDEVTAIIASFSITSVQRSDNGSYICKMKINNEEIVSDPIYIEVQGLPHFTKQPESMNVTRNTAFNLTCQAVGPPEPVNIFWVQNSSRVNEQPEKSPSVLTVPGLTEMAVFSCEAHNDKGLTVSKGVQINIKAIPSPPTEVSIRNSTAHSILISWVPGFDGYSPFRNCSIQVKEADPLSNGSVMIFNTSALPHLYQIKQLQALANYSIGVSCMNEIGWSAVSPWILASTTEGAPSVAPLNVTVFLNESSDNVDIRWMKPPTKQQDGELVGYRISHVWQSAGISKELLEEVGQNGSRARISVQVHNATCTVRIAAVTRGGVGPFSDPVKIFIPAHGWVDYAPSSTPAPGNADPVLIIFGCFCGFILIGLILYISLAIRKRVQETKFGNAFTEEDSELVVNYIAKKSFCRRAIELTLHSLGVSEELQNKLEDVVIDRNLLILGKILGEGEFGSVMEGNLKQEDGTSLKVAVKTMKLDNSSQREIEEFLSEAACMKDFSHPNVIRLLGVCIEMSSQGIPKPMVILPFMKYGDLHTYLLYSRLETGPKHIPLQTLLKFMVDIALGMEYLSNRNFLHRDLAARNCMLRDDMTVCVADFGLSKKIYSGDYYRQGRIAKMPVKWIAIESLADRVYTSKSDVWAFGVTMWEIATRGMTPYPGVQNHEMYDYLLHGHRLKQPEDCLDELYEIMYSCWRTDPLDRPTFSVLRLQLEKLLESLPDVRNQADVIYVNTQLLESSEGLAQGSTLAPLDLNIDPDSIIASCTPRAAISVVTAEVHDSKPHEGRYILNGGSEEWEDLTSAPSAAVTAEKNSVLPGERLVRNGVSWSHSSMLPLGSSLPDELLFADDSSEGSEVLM"}, "EPHB3": {"target": "EPHB3 (Homo sapiens, UniProt P54753)"}, "ACVRL1": {"target": "ACVRL1 (Homo sapiens, UniProt P37023)"}, "MEK2": {"target": "T3, MEK2 (Homo sapiens, UniProt P36507)", "T3 construct": "gene MAP2K2"}, "SGK2": {"target": "SGK2 (Homo sapiens, UniProt Q9HBY8)"}, "NEK10": {"target": "NEK10 (Homo sapiens, UniProt Q6ZWH5)"}, "PLK1": {"target": "PLK1 (Homo sapiens, UniProt P53350)", "sequence (P53350 whole entry)": "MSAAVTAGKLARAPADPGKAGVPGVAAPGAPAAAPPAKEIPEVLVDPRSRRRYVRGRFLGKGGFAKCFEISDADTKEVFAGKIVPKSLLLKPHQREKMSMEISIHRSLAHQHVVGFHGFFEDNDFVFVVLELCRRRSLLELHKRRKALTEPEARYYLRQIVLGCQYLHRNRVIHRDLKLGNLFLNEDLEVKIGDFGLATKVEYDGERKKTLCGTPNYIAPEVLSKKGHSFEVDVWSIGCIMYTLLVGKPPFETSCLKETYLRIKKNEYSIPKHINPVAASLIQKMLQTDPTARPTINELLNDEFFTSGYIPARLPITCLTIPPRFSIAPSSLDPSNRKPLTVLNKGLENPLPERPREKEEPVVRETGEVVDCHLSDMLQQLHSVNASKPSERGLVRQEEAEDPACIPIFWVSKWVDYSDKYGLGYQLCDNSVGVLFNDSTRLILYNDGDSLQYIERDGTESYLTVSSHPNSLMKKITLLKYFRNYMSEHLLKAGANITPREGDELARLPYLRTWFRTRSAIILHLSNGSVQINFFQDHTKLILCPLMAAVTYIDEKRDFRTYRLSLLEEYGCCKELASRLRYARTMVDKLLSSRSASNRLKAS"}, "CAMK2A": {"target": "CAMK2A (Homo sapiens, UniProt Q9UQM7)"}, "IKK-alpha": {"target": "T4, IKK-alpha (Homo sapiens, UniProt O15111)", "T4 construct": "gene CHUK"}, "CTK": {"target": "T5, CTK (Homo sapiens, UniProt P42679)", "T5 construct": "gene MATK"}, "[2]": {"target": "ABL1(F317L)-nonphosphorylated (Homo sapiens, UniProt P00519, F317L)"}, "TBK1": {"target": "TBK1 (Homo sapiens, UniProt Q9UHD2)"}, "HPK1": {"target": "T6, HPK1 (Homo sapiens, UniProt Q92918)", "T6 construct": "gene MAP4K1"}, "EPHB1": {"target": "EPHB1 (Homo sapiens, UniProt P54762)"}, "CDKL3": {"target": "CDKL3 (Homo sapiens, UniProt Q8IVW4)"}, "PIK3CG": {"target": "PIK3CG (Homo sapiens, UniProt P48736)", "sequence (P48736 whole entry)": "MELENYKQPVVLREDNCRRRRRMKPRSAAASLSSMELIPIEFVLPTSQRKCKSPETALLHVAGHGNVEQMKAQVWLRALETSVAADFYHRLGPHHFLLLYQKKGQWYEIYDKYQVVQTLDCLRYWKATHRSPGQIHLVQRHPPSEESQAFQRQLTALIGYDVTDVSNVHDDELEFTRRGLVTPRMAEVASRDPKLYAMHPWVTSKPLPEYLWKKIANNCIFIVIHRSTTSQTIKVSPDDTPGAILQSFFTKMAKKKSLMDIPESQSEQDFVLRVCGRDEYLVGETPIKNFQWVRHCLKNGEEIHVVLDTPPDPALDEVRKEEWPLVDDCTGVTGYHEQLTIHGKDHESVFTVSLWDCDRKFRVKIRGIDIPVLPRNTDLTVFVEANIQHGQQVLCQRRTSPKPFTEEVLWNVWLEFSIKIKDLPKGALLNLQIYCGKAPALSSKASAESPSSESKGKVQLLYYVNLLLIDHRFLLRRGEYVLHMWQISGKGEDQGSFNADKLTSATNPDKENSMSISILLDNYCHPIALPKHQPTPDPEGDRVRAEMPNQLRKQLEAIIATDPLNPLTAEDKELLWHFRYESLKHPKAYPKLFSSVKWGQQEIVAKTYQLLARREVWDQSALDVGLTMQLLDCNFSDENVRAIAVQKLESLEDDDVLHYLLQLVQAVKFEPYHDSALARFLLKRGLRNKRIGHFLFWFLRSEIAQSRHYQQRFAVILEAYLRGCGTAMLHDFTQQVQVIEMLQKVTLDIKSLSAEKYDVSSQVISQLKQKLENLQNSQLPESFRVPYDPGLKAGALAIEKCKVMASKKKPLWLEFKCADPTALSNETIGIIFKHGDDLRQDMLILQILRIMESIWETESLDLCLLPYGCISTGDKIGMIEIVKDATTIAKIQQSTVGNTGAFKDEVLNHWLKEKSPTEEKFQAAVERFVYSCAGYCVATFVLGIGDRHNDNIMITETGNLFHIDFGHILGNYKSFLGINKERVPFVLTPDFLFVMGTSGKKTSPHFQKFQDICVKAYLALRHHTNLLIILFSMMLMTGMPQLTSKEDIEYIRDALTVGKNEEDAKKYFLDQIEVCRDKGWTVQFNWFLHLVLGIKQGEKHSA"}, "DLK": {"target": "T7, DLK (Homo sapiens, UniProt Q12852)", "T7 construct": "gene MAP3K12"}, "PHKG2": {"target": "PHKG2 (Homo sapiens, UniProt P15735)"}, "BRK": {"target": "T8, BRK (Homo sapiens, UniProt Q13882)", "T8 construct": "gene PTK6"}, "EGFR(L747-T751del,Sins)": {"target": "EGFR(L747-T751del,Sins) (Homo sapiens, UniProt P00533, DEL747-750/T751S)"}, "CAMK1D": {"target": "CAMK1D (Homo sapiens, UniProt Q8IU85)"}, "MKNK2": {"target": "MKNK2 (Homo sapiens, UniProt Q9HBH9)", "sequence (Q9HBH9 whole entry)": "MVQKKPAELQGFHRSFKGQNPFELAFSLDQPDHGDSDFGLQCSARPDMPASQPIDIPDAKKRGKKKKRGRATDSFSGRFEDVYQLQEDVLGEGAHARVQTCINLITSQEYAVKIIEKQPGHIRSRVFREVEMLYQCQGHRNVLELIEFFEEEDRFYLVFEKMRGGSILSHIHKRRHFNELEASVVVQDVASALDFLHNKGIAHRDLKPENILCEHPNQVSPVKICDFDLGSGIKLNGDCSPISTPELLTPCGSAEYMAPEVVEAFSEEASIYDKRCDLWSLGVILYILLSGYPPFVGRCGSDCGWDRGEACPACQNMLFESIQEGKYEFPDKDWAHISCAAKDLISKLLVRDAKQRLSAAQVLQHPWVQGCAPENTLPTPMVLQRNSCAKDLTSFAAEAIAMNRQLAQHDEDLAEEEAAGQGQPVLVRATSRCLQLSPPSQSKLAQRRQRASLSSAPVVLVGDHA"}, "BRAF(V600E)": {"target": "BRAF(V600E) (Homo sapiens, UniProt P15056, V600E)"}, "EPHA2": {"target": "EPHA2 (Homo sapiens, UniProt P29317)"}, "NLK": {"target": "NLK (Homo sapiens, UniProt Q9UBE8)"}, "CHEK1": {"target": "CHEK1 (Homo sapiens, UniProt O14757)"}, "MST1": {"target": "T9, MST1 (Homo sapiens, UniProt Q13043)", "T9 construct": "gene STK4", "T9 sequence (Q13043 whole entry)": "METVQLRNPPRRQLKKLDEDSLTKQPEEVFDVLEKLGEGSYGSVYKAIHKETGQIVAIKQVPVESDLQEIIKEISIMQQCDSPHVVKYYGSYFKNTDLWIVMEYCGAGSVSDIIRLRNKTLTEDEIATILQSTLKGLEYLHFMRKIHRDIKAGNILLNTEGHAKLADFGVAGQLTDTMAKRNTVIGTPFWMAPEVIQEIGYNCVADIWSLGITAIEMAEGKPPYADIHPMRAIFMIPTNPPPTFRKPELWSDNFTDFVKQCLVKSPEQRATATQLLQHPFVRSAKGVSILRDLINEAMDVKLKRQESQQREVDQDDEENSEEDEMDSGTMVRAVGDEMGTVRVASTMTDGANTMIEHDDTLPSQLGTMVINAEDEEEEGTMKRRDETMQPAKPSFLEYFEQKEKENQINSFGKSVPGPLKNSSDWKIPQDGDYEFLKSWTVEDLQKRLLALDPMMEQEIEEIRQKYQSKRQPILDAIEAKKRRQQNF"}},
  "data": [
    {"smiles": "Cc1cn(-c2cc(NC(=O)c3ccc4c(c3)CN(c3cncnc3)C[C@@H]4C)cc(C(F)(F)F)c2)cn1", "note": "[Compound 6j]", "values": [
      {"measurement": "remaining activity at 1 µM", "setting": "[1]", "result": 83, "unit": "%"},
      {"measurement": "remaining activity at 1 µM", "setting": "KIT(D816V)", "result": 77, "unit": "%"},
      {"measurement": "remaining activity at 1 µM", "setting": "CSNK1A1L", "result": 69, "unit": "%"},
      {"measurement": "remaining activity at 1 µM", "setting": "HASPIN", "result": 100, "unit": "%"},
      {"measurement": "remaining activity at 1 µM", "setting": "PAK2", "result": 85, "unit": "%"},
      {"measurement": "remaining activity at 1 µM", "setting": "EPHA6", "result": 58, "unit": "%"},
      {"measurement": "remaining activity at 1 µM", "setting": "PIP5K2C", "result": 100, "unit": "%"},
      {"measurement": "remaining activity at 1 µM", "setting": "AMPK-alpha2", "result": 100, "unit": "%"},
      {"measurement": "remaining activity at 1 µM", "setting": "MERTK", "result": 61, "unit": "%"},
      {"measurement": "remaining activity at 1 µM", "setting": "EPHB3", "result": 82, "unit": "%"},
      {"measurement": "remaining activity at 1 µM", "setting": "ACVRL1", "result": 76, "unit": "%"},
      {"measurement": "remaining activity at 1 µM", "setting": "MEK2", "result": 100, "unit": "%"},
      {"measurement": "remaining activity at 1 µM", "setting": "SGK2", "result": 100, "unit": "%"},
      {"measurement": "remaining activity at 1 µM", "setting": "NEK10", "result": 100, "unit": "%"},
      {"measurement": "remaining activity at 1 µM", "setting": "PLK1", "result": 97, "unit": "%"},
      {"measurement": "remaining activity at 1 µM", "setting": "CAMK2A", "result": 97, "unit": "%"},
      {"measurement": "remaining activity at 1 µM", "setting": "IKK-alpha", "result": 100, "unit": "%"},
      {"measurement": "remaining activity at 1 µM", "setting": "CTK", "result": 100, "unit": "%"},
      {"measurement": "remaining activity at 1 µM", "setting": "[2]", "result": 38, "unit": "%"},
      {"measurement": "remaining activity at 1 µM", "setting": "TBK1", "result": 95, "unit": "%"},
      {"measurement": "remaining activity at 1 µM", "setting": "HPK1", "result": 100, "unit": "%"},
      {"measurement": "remaining activity at 1 µM", "setting": "EPHB1", "result": 72, "unit": "%"},
      {"measurement": "remaining activity at 1 µM", "setting": "CDKL3", "result": 100, "unit": "%"},
      {"measurement": "remaining activity at 1 µM", "setting": "PIK3CG", "result": 100, "unit": "%"},
      {"measurement": "remaining activity at 1 µM", "setting": "DLK", "result": 100, "unit": "%"},
      {"measurement": "remaining activity at 1 µM", "setting": "PHKG2", "result": 79, "unit": "%"},
      {"measurement": "remaining activity at 1 µM", "setting": "BRK", "result": 84, "unit": "%"},
      {"measurement": "remaining activity at 1 µM", "setting": "EGFR(L747-T751del,Sins)", "result": 97, "unit": "%"},
      {"measurement": "remaining activity at 1 µM", "setting": "CAMK1D", "result": 71, "unit": "%"},
      {"measurement": "remaining activity at 1 µM", "setting": "MKNK2", "result": 100, "unit": "%"},
      {"measurement": "remaining activity at 1 µM", "setting": "BRAF(V600E)", "result": 100, "unit": "%"},
      {"measurement": "remaining activity at 1 µM", "setting": "EPHA2", "result": 65, "unit": "%"},
      {"measurement": "remaining activity at 1 µM", "setting": "NLK", "result": 61, "unit": "%"},
      {"measurement": "remaining activity at 1 µM", "setting": "CHEK1", "result": 96, "unit": "%"},
      {"measurement": "remaining activity at 1 µM", "setting": "MST1", "result": 85, "unit": "%"}
    ]}
  ]
}
